{
  "source": "ChEMBL document CHEMBL4270647",
  "about": "“Recent advances of RAF (rapidly accelerated fibrosarcoma) inhibitors as anti-cancer agents” (Eur J Med Chem, 2018)",
  "key": {"MX1": {"test_system": "MX1", "experiment": "Antiproliferative activity against human MX1 cells", "format": "functional, cell-based"}, "A-375 [1]": {"test_system": "A-375", "experiment": "Antiproliferative activity against human A375 cells", "format": "functional, cell-based"}, "HT-29": {"test_system": "HT-29", "experiment": "Antiproliferative activity against human HT-29 cells", "format": "functional, cell-based"}, "KETR3": {"test_system": "KETR3", "experiment": "Antiproliferative activity against human Ketr3 cells", "format": "functional, cell-based"}, "HepG2": {"test_system": "HepG2", "experiment": "Antiproliferative activity against human HepG2 cells", "format": "functional, cell-based"}, "[2]": {"biological_target": "T1, Serine/threonine-protein kinase B-raf (Homo sapiens, UniProt P15056)", "T1 sequence (P15056 whole entry)": "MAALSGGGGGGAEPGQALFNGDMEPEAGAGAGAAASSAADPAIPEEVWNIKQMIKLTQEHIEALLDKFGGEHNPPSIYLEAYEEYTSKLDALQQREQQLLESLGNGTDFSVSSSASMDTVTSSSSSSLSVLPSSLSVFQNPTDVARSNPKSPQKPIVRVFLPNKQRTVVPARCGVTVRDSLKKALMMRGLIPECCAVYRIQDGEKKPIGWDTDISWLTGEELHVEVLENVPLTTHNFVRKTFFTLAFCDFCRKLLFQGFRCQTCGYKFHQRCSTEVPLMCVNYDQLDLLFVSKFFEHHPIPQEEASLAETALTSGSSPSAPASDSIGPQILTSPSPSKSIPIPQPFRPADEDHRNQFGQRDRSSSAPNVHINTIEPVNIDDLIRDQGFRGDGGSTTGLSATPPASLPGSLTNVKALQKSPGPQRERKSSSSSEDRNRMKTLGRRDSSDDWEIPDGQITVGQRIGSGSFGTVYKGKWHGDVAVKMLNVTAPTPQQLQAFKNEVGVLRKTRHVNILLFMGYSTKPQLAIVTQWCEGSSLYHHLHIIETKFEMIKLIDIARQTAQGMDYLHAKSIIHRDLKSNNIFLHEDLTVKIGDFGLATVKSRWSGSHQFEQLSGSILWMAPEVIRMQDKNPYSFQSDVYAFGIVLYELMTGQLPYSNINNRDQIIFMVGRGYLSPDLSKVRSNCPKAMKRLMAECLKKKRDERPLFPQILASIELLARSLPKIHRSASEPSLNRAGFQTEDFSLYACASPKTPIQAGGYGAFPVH", "experiment": "Inhibition of BRAF (unknown origin)"}, "MKN-45": {"test_system": "MKN-45", "experiment": "Antiproliferative activity against human MKN45 cells", "format": "functional, cell-based"}, "NCI-H460": {"test_system": "NCI-H460", "experiment": "Antiproliferative activity against human NCI-H460 cells", "format": "functional, cell-based"}, "COLO 205": {"test_system": "COLO 205", "experiment": "Antiproliferative activity against human COLO205 cells after 72 hrs by CTG solution based luminescence assay", "format": "functional, cell-based", "details": "COLO 205, 72 h"}, "[3]": {"biological_target": "T2, Serine/threonine-protein kinase A-Raf (Homo sapiens, UniProt P10398)", "T2 sequence (P10398 whole entry)": "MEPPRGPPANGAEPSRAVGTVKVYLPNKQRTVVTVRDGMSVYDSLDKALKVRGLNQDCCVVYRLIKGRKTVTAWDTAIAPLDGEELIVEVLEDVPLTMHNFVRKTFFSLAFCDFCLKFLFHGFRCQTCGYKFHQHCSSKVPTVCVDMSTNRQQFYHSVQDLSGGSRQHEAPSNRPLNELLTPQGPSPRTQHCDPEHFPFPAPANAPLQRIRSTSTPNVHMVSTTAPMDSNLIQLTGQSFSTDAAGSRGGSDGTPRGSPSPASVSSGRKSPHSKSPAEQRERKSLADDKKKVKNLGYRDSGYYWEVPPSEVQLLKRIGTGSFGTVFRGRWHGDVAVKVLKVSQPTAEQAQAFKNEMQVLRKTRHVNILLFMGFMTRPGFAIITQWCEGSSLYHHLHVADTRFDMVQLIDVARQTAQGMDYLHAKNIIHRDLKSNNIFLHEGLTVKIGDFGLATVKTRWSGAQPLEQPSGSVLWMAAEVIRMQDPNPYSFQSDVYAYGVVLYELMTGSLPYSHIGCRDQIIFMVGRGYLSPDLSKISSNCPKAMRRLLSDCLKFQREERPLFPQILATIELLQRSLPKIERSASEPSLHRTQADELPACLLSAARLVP", "experiment": "Inhibition of ARAF (unknown origin) after 20 mins in presence of 33P-gamma-ATP by hotspot kinase"}, "A-375 [4]": {"test_system": "A-375", "experiment": "Antiproliferative activity against human A375 cells after 72 hrs by CTG solution based luminescence assay", "format": "functional, cell-based", "details": "A-375, 72 h"}, "[5]": {"biological_target": "T3, Serine/threonine-protein kinase B-raf (Homo sapiens, UniProt P15056, V600E)", "T3 sequence (P15056 2-766 V600E limits assumed)": "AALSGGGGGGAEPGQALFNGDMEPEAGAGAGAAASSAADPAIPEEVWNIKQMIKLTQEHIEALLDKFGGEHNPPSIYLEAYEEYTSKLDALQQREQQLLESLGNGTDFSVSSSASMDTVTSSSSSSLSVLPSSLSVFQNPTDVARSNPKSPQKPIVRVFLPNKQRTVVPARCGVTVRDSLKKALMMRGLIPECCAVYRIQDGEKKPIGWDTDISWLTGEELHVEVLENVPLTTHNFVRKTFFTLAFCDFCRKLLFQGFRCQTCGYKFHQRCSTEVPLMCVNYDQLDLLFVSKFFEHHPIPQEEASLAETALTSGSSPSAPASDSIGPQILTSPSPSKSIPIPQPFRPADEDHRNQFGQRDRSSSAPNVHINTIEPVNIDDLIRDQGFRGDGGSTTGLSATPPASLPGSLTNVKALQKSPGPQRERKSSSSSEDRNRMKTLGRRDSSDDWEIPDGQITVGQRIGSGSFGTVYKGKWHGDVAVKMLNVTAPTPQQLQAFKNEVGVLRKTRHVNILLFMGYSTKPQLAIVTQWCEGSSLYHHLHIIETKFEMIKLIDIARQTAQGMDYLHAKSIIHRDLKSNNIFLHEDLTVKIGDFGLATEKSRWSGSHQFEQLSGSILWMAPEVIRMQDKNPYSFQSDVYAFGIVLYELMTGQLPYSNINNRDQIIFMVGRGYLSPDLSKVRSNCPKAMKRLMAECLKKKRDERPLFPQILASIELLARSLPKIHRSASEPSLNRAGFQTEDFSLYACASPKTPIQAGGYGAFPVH", "experiment": "Inhibition of BRAF V600E mutant (unknown origin)"}, "SK-MEL-2": {"test_system": "SK-MEL-2", "experiment": "Antiproliferative activity against human SK-MEL-2 cells after 72 hrs by CTG solution based luminescence assay", "format": "functional, cell-based", "details": "SK-MEL-2, 72 h"}, "[6]": {"biological_target": "T1, Serine/threonine-protein kinase B-raf", "experiment": "Inhibition of BRAF (unknown origin) using full length His6-tagged MEK1 as substrate after 20 mins in presence of 33P-gamma-ATP by hotspot kinase assay"}, "[7]": {"biological_target": "T4, RAF proto-oncogene serine/threonine-protein kinase (Homo sapiens, UniProt P04049)", "T4 sequence (P04049 whole entry)": "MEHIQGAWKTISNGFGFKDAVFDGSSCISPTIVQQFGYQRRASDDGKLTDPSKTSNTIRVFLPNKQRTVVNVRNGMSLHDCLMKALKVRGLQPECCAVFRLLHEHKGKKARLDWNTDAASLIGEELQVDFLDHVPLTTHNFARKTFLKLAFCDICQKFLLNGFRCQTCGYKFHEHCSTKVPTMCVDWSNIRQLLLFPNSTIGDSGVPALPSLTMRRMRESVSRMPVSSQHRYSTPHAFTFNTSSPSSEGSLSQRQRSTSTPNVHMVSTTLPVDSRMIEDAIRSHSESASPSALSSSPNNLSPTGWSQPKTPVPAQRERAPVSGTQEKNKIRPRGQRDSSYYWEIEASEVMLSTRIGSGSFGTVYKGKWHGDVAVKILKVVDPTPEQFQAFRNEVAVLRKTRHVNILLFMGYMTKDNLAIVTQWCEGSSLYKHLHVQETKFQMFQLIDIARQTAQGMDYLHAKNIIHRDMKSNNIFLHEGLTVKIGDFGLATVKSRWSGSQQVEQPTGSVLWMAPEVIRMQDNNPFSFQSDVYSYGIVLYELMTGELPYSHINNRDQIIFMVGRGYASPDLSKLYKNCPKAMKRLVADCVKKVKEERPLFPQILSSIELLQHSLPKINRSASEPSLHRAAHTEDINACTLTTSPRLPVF", "experiment": "Inhibition of CRAF (unknown origin) after 20 mins in presence of 33P-gamma-ATP by hotspot kinase assay"}, "[8]": {"biological_target": "T3, Serine/threonine-protein kinase B-raf", "experiment": "Inhibition of […] BRAF V600E mutant (AA416 to 766 residues (unknown origin) using full length His6-tagged MEK1 as substrate after 20 mins in presence of 33P-gamma-ATP by hotspot kinase assay"}, "MCF7": {"test_system": "MCF7", "experiment": "Antiproliferative activity against human MCF7 cells", "format": "functional, cell-based"}, "UO-31": {"test_system": "UO-31", "experiment": "Antiproliferative activity against human UO31 cells", "format": "functional, cell-based"}, "HCT-116": {"test_system": "HCT-116", "experiment": "Antiproliferative activity against human HCT116 cells", "format": "functional, cell-based"}, "[9]": {"biological_target": "T4, RAF proto-oncogene serine/threonine-protein kinase", "experiment": "Inhibition of CRAF (unknown origin)"}, "[10]": {"biological_target": "T2, Serine/threonine-protein kinase A-Raf", "experiment": "Inhibition of ARAF (unknown origin)"}},
  "data": [
    {"smiles": "CNC(=O)c1cc(Oc2ccc(NC(=O)Nc3ccc(Cl)c(C(F)(F)F)c3)cc2)ccn1", "note": "[SORAFENIB]", "values": [
      {"measurement": "IC50", "setting": "MX1", "value": "8270 to 18800", "unit": "nM"},
      {"measurement": "IC50", "setting": "A-375 [1]", "value": "8270 to 18800", "unit": "nM"},
      {"measurement": "IC50", "setting": "HT-29", "value": "3610 to 18800", "unit": "nM"},
      {"measurement": "IC50", "setting": "KETR3", "value": "8270 to 18800", "unit": "nM"},
      {"measurement": "IC50", "setting": "HepG2", "value": "8270 to 18800", "unit": "nM"}
    ]},
    {"smiles": "CNC(=O)c1cc(Cn2cc(F)c3cc(NC(=O)Nc4ccc(Cl)c(C(F)(F)F)c4)ccc32)ccn1", "values": [
      {"measurement": "IC50", "setting": "[2]", "value": 1360, "unit": "nM"}
    ]},
    {"smiles": "CC(NC(=O)c1ccc(-c2ccc(NC(=O)Nc3ccc(C(F)(F)F)c(Cl)c3)cc2)cc1)c1ccccc1", "note": "(stereo unspecified)", "values": [
      {"measurement": "IC50", "setting": "MX1", "value": 4630, "unit": "nM"}
    ]},
    {"smiles": "CN(C)CCn1cnnc1-c1cc(Oc2ccc(NC(=O)N/N=C/c3cccc(Cl)c3Cl)cc2F)ccn1", "values": [
      {"measurement": "IC50", "setting": "MKN-45", "value": 50, "unit": "nM"},
      {"measurement": "IC50", "setting": "NCI-H460", "value": 70, "unit": "nM"}
    ]},
    {"smiles": "Cc1ccc(C(=O)Nc2ccc(C(F)(F)F)c(Cl)c2)cc1NC(=O)C1(c2ccnc(NCCN3CCN(C)CC3)n2)CC1", "values": [
      {"measurement": "IC50", "setting": "COLO 205", "value": 1920, "unit": "nM"},
      {"measurement": "IC50", "setting": "[3]", "value": 30.1, "unit": "nM"},
      {"measurement": "IC50", "setting": "A-375 [4]", "value": 1070, "unit": "nM"},
      {"measurement": "IC50", "setting": "[5]", "value": 12.6, "unit": "nM"},
      {"measurement": "IC50", "setting": "SK-MEL-2", "value": "< 400", "unit": "nM"},
      {"measurement": "IC50", "setting": "[6]", "value": 19.7, "unit": "nM"},
      {"measurement": "IC50", "setting": "[7]", "value": 17.5, "unit": "nM"},
      {"measurement": "IC50", "setting": "[8]", "value": 12.6, "unit": "nM"}
    ]},
    {"smiles": "CC(NC(=O)c1cccc(-c2ccc(NC(=O)Nc3ccc(C(F)(F)F)c(Cl)c3)cc2)c1)c1ccccc1", "note": "(stereo unspecified)", "values": [
      {"measurement": "IC50", "setting": "MX1", "value": "5170 to 6460", "unit": "nM"},
      {"measurement": "IC50", "setting": "A-375 [1]", "value": 5170, "unit": "nM"},
      {"measurement": "IC50", "setting": "HT-29", "value": "5170 to 6460", "unit": "nM"},
      {"measurement": "IC50", "setting": "KETR3", "value": "5170 to 6460", "unit": "nM"},
      {"measurement": "IC50", "setting": "HepG2", "value": "5170 to 6460", "unit": "nM"}
    ]},
    {"smiles": "O=S(=O)(c1ccc(F)cc1)N1CCCC(Nc2nccc(-c3c(-c4ccc(F)cc4)nc4sccn34)n2)C1", "note": "(stereo unspecified)", "values": [
      {"measurement": "IC50", "setting": "[5]", "value": 23, "unit": "nM"}
    ]},
    {"smiles": "O=C(NCCNc1nccc(-c2c(-c3ccc(F)cc3)nc3sccn23)n1)c1ccccc1", "values": [
      {"measurement": "IC50", "setting": "MCF7", "value": 1430, "unit": "nM"},
      {"measurement": "IC50", "setting": "UO-31", "value": 1750, "unit": "nM"}
    ]},
    {"smiles": "O=C(NCCNc1nccc(-c2c(-c3ccc(F)cc3)nc3sccn23)n1)Nc1ccccc1", "values": [
      {"measurement": "IC50", "setting": "MCF7", "value": 3730, "unit": "nM"},
      {"measurement": "IC50", "setting": "UO-31", "value": 2940, "unit": "nM"}
    ]},
    {"smiles": "CNc1cc2c(cn1)cc(-c1ccc(F)c(NC(=O)Nc3cc(C(C)(C)C)no3)c1)c(=O)n2C1CCOC1", "note": "(stereo unspecified)", "values": [
      {"measurement": "IC50", "setting": "A-375 [1]", "value": 6, "unit": "nM"},
      {"measurement": "IC50", "setting": "HCT-116", "value": 32, "unit": "nM"},
      {"measurement": "IC50", "setting": "[5]", "value": 1000, "unit": "nM"}
    ]},
    {"smiles": "COc1ccc(C(=O)NCCNc2nccc(-c3c(-c4ccc(F)cc4)nc4sccn34)n2)cc1", "values": [
      {"measurement": "IC50", "setting": "MCF7", "value": 2000, "unit": "nM"},
      {"measurement": "IC50", "setting": "UO-31", "value": 1420, "unit": "nM"}
    ]},
    {"smiles": "O=S(=O)(NCCNc1nccc(-c2c(-c3ccc(F)cc3)nc3sccn23)n1)c1ccc(O)cc1", "values": [
      {"measurement": "IC50", "setting": "[5]", "value": 19, "unit": "nM"},
      {"measurement": "IC50", "setting": "[9]", "value": 40, "unit": "nM"}
    ]},
    {"smiles": "CNC(=O)c1cc(Cn2ccc3cc(NC(=O)Nc4ccc(Cl)c(C(F)(F)F)c4)ccc32)ccn1", "values": [
      {"measurement": "IC50", "setting": "[2]", "value": 510, "unit": "nM"}
    ]},
    {"smiles": "Cc1ccc(C(=O)Nc2ccc(C(F)(F)F)c(Cl)c2)cc1NC(=O)C1(c2cc(NCCCN3CCN(C)CC3)ncn2)CC1", "values": [
      {"measurement": "IC50", "setting": "[5]", "value": "1.4 to 12.2", "unit": "nM"},
      {"measurement": "IC50", "setting": "[2]", "value": 29.7, "unit": "nM"},
      {"measurement": "IC50", "setting": "[10]", "value": 25.3, "unit": "nM"},
      {"measurement": "IC50", "setting": "[9]", "value": 13.3, "unit": "nM"}
    ]},
    {"smiles": "COc1cc2c(cnc3[nH]nc(C4CC4)c32)cc1-c1c(F)ccc(NS(=O)(=O)CCCF)c1F", "values": [
      {"measurement": "IC50", "setting": "A-375 [1]", "value": 13, "unit": "nM"},
      {"measurement": "IC50", "setting": "[5]", "value": 7, "unit": "nM"}
    ]}
  ]
}
